Experimental data taken from ChEMBL document CHEMBL1145498, “A systematic interaction map of validated kinase inhibitors with Ser/Thr kinases” (Proc Natl Acad Sci U S A, 2007).

Columns and labels:
[1] = biological target: Calcium/calmodulin-dependent protein kinase type 1D (Homo sapiens) (UniProt Q8IU85)
[2] = biological target: Calcium/calmodulin-dependent protein kinase type 1G (Homo sapiens) (UniProt Q96NX5)
[3] = biological target: Calcium/calmodulin-dependent protein kinase type II subunit alpha (Homo sapiens) (UniProt Q9UQM7)
[4] = biological target: Calcium/calmodulin-dependent protein kinase type II subunit delta (Homo sapiens) (UniProt Q13557)
[5] = biological target: Calcium/calmodulin-dependent protein kinase kinase 2 (Homo sapiens, UniProt Q96RR4)
[6] = biological target: Cyclin-dependent kinase 6 (Homo sapiens) (UniProt Q00534)
[7] = biological target: Serine/threonine-protein kinase Chk2 (Homo sapiens, UniProt O96017)
[8] = biological target: Dual specificity protein kinase CLK1 (Homo sapiens) (UniProt P49759)
[9] = biological target: Dual specificity protein kinase CLK2 (Homo sapiens) (UniProt P49760)
[10] = biological target: Dual specificity protein kinase CLK3 (Homo sapiens) (UniProt P49761)
[11] = biological target: Casein kinase I isoform gamma-1 (Homo sapiens) (UniProt Q9HCP0)
[12] = biological target: Casein kinase I isoform gamma-2 (Homo sapiens) (UniProt P78368)
[13] = biological target: T1, Myotonin-protein kinase (Homo sapiens) (UniProt Q09013)
T1 sequence (whole entry): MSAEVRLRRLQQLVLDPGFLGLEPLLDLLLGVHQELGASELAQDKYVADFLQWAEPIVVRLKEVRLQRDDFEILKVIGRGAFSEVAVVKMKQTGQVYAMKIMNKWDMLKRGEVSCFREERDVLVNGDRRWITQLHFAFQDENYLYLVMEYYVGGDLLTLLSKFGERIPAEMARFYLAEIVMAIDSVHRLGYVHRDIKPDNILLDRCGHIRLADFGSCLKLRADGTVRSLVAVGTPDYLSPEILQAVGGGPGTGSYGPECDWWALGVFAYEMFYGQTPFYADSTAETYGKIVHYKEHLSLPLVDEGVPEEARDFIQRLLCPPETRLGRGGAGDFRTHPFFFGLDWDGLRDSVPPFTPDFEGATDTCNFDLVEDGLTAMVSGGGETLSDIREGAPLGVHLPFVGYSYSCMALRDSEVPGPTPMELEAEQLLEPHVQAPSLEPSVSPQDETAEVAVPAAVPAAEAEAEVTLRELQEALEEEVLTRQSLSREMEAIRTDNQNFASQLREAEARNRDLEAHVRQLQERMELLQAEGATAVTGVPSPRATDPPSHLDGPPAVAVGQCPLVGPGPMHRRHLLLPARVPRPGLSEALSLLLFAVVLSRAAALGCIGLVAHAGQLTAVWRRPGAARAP

[14] = biological target: Glycogen synthase kinase-3 beta (Homo sapiens, UniProt P49841)
[15] = biological target: Tyrosine-protein kinase JAK1 (Homo sapiens) (UniProt P23458)
[16] = biological target: Dual specificity mitogen-activated protein kinase kinase 2 (Homo sapiens, UniProt P36507)
[17] = biological target: T2, Serine/threonine-protein kinase Nek2 (Homo sapiens) (UniProt P51955)
T2 sequence (whole entry): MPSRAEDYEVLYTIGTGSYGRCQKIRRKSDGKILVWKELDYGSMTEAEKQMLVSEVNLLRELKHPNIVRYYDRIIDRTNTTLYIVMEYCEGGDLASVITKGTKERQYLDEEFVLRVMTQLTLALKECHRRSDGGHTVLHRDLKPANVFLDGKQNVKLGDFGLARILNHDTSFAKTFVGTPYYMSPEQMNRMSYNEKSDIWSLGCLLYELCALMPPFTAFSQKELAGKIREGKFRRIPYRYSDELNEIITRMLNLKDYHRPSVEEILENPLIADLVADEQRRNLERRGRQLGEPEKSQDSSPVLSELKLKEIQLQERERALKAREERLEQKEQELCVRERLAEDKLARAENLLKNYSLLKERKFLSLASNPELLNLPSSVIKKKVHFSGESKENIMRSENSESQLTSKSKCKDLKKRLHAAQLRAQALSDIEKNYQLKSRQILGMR

[18] = biological target: Cyclin-dependent kinase 16 (Homo sapiens) (UniProt Q00536)
[19] = biological target: Serine/threonine-protein kinase pim-1 (Homo sapiens) (UniProt P11309)
[20] = biological target: Serine/threonine-protein kinase pim-2 (Homo sapiens, UniProt Q9P1W9)
[21] = biological target: Serine/threonine-protein kinase PLK1 (Homo sapiens) (UniProt P53350)
[22] = biological target: Ribosomal protein S6 kinase alpha-3 (Homo sapiens) (UniProt P51812)
[23] = biological target: STE20-like serine/threonine-protein kinase (Homo sapiens) (UniProt Q9H2G2)
[24] = biological target: Serine/threonine-protein kinase 38 (Homo sapiens) (UniProt Q15208)
[25] = biological target: Serine/threonine-protein kinase 26 (Homo sapiens) (UniProt Q9P289)
[26] = biological target: T3, Lymphokine-activated killer T-cell-originated protein kinase (Homo sapiens) (UniProt Q96KB5)
T3 sequence (whole entry): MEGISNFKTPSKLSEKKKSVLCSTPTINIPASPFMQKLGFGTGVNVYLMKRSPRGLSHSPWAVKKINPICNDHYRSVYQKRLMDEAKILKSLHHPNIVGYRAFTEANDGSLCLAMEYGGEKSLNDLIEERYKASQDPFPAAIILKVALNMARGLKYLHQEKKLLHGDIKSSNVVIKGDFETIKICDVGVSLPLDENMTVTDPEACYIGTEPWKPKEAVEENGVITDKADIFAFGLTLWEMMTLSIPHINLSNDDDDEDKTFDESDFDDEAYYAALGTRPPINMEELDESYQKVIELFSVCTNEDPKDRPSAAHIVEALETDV

Chain of Serine/threonine-protein kinase Chk2 (O96017 whole entry): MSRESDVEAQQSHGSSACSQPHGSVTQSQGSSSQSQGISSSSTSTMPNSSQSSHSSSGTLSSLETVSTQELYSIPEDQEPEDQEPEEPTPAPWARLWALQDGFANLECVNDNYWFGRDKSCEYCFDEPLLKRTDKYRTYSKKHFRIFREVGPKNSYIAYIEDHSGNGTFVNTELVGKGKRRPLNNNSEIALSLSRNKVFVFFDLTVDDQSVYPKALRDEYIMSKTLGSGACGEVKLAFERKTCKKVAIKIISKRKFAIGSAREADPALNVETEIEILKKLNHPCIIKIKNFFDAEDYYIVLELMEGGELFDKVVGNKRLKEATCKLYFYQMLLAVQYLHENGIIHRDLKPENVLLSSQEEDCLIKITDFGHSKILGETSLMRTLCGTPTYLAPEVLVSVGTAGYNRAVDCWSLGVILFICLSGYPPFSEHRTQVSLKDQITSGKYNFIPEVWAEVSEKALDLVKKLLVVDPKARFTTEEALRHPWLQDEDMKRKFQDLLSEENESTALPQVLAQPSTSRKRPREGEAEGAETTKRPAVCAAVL
Chain of Glycogen synthase kinase-3 beta (P49841 whole entry, looked up): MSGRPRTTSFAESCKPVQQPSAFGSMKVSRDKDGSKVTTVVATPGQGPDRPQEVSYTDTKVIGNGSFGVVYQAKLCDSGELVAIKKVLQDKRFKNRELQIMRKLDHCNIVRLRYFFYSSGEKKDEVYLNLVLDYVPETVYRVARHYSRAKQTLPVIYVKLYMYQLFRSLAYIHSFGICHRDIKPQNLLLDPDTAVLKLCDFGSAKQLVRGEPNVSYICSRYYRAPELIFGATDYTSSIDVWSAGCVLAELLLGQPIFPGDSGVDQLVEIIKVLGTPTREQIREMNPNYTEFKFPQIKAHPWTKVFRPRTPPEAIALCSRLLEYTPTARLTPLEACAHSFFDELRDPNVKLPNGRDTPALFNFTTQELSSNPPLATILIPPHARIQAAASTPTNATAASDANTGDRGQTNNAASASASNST
Chain of Serine/threonine-protein kinase pim-1 (Homo sapiens) (P11309 whole entry, looked up): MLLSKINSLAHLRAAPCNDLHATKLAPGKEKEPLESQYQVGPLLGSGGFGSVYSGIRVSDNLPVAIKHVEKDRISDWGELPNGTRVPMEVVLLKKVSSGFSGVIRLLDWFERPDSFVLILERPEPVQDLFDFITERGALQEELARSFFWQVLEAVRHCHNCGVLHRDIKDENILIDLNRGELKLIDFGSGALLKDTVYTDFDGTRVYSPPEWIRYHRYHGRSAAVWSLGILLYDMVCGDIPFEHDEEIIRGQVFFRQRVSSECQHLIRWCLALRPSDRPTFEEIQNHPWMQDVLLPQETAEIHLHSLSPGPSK
Chain of Dual specificity protein kinase CLK1 (Homo sapiens) (P49759 whole entry, looked up): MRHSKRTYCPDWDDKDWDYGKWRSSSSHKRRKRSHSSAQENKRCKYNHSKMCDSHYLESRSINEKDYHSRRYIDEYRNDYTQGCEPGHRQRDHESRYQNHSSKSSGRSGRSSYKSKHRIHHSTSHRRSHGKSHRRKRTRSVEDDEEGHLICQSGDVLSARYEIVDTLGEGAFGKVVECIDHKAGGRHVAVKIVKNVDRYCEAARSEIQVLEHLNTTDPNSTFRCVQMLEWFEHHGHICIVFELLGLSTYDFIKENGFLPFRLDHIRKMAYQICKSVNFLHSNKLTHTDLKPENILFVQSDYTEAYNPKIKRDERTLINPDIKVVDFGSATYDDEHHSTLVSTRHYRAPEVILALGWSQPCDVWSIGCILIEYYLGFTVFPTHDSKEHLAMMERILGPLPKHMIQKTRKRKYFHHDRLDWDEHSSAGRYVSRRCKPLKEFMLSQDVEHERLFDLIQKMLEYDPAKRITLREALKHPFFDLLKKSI
Chain of Serine/threonine-protein kinase 38 (Homo sapiens) (Q15208 2-465 limits assumed): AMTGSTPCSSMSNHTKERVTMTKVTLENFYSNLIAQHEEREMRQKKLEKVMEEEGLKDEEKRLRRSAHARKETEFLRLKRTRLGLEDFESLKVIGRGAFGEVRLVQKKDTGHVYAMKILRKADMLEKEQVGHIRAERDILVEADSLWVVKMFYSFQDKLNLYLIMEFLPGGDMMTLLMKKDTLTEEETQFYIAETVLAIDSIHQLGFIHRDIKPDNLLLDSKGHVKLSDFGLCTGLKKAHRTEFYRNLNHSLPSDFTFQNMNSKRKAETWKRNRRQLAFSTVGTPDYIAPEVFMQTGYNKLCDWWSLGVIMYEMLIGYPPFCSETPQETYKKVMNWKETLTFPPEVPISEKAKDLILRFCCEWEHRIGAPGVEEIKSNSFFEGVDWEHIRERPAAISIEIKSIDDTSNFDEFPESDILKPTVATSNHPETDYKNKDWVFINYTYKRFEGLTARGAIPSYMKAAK
Chain of Calcium/calmodulin-dependent protein kinase type 1G (Homo sapiens) (Q96NX5 whole entry): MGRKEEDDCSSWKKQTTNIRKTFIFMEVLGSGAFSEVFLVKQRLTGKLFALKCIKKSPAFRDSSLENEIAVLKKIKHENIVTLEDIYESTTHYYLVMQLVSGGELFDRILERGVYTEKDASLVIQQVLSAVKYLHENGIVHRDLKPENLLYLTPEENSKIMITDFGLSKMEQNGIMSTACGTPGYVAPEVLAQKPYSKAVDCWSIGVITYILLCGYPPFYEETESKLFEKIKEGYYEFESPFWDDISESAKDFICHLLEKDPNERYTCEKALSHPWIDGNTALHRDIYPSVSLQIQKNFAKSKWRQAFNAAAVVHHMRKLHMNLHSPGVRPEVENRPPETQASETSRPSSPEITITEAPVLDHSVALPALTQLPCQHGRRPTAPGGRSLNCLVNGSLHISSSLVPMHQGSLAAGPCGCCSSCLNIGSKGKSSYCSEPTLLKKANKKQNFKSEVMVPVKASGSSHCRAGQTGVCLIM
Chain of Dual specificity mitogen-activated protein kinase kinase 2 (P36507 whole entry): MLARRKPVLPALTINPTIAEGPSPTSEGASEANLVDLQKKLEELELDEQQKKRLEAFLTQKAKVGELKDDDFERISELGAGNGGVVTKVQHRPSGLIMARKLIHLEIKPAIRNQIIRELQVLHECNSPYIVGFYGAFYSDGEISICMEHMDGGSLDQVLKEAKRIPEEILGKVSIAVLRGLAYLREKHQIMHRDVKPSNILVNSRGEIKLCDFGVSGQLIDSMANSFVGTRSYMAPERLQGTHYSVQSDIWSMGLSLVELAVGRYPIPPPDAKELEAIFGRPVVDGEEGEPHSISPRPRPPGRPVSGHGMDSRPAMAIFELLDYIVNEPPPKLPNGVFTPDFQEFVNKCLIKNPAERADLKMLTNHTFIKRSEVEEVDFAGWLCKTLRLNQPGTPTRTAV
Chain of Calcium/calmodulin-dependent protein kinase type II subunit alpha (Homo sapiens) (Q9UQM7 whole entry): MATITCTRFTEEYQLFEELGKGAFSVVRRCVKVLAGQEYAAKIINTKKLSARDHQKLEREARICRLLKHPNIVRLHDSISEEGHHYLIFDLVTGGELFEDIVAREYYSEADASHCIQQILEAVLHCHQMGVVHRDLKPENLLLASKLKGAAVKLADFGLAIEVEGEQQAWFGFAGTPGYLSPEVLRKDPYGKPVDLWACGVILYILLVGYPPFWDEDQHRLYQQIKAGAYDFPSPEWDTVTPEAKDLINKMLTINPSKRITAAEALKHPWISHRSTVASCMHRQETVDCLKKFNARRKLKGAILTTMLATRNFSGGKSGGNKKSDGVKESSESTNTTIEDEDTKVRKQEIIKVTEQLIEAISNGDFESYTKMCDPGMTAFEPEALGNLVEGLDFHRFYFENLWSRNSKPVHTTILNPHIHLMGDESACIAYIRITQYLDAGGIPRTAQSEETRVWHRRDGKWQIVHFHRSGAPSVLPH
Chain of Casein kinase I isoform gamma-2 (Homo sapiens) (P78368 whole entry, looked up, canonical isoform): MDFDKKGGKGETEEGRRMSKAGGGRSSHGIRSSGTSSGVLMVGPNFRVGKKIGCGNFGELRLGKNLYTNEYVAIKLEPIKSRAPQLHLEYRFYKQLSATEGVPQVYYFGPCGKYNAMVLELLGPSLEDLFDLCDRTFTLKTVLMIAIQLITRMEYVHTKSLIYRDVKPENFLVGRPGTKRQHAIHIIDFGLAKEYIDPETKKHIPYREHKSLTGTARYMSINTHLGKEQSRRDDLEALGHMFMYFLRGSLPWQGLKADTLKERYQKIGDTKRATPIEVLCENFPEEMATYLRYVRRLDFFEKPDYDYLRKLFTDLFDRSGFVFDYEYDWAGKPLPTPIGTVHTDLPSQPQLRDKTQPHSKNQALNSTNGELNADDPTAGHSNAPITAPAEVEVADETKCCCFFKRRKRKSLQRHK
Chain of Serine/threonine-protein kinase PLK1 (Homo sapiens) (P53350 whole entry): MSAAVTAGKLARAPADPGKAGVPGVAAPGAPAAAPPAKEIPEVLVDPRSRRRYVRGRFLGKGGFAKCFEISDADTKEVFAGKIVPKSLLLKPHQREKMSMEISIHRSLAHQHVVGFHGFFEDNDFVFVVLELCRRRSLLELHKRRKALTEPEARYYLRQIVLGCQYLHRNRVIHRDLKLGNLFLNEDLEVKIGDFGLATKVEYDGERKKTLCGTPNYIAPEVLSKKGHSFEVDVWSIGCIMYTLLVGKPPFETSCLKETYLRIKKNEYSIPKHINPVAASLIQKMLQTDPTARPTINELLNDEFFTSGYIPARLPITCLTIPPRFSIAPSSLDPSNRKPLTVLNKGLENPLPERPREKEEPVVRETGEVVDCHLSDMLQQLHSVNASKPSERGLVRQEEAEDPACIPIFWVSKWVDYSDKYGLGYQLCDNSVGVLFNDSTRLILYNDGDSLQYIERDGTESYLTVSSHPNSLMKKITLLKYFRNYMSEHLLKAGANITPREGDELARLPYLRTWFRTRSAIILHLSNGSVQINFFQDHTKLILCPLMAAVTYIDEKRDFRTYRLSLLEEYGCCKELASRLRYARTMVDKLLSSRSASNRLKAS
Chain of Serine/threonine-protein kinase pim-2 (Q9P1W9 whole entry, looked up): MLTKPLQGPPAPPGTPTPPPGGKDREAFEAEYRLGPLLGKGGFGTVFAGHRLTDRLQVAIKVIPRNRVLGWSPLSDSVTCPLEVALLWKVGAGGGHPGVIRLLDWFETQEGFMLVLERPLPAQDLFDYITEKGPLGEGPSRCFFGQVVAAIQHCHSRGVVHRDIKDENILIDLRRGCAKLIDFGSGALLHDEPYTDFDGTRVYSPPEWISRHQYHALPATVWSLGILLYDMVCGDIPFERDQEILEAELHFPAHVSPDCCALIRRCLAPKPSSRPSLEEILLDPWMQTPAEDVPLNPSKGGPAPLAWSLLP

C/C(O)=C(\C#N)C(=O)Nc1cc(Br)ccc1Br
ΔTm [1]: 0.3 °C | ΔTm [2]: -0.1 °C | ΔTm [3]: 0.1 °C | ΔTm [4]: 0.5 °C | ΔTm [5]: -0.1 °C | ΔTm [6]: 0.2 °C | ΔTm [7]: 0.5 °C | ΔTm [8]: 0.5 °C | ΔTm [9]: 0.5 °C | ΔTm [10]: 0.3 °C | ΔTm [11]: 0.7 °C | ΔTm [12]: 0.4 °C | ΔTm [13]: 0 °C | ΔTm [14]: 1.8 °C | ΔTm [15]: 0.7 °C | ΔTm [16]: -0.2 °C | ΔTm [17]: 0.9 °C | ΔTm [18]: -1.1 °C | ΔTm [19]: 1.4 °C | ΔTm [20]: 1.9 °C | ΔTm [21]: 1.3 °C | ΔTm [22]: 0.2 °C | ΔTm [23]: 0.4 °C | ΔTm [24]: -0.1 °C | ΔTm [25]: -0.1 °C | ΔTm [26]: 0.8 °C

Cc1cc(C=C2C(=O)C=CC2=O)cc(C)c1O
ΔTm [1]: -1 °C | ΔTm [2]: -0.4 °C | ΔTm [3]: 1.2 °C | ΔTm [4]: 1.1 °C | ΔTm [5]: -1.4 °C | ΔTm [6]: -3.4 °C | ΔTm [7]: 2.5 °C | ΔTm [8]: -0.4 °C | ΔTm [9]: -0.8 °C | ΔTm [10]: -1.5 °C | ΔTm [11]: 0.1 °C | ΔTm [12]: 0.5 °C | ΔTm [13]: 0.3 °C | ΔTm [14]: -2.9 °C | ΔTm [15]: -7.1 °C | ΔTm [16]: -2 °C | ΔTm [17]: 0.8 °C | ΔTm [18]: 2.2 °C | ΔTm [19]: -1.4 °C | ΔTm [20]: -5.7 °C | ΔTm [21]: 0.6 °C | ΔTm [22]: -7.9 °C | ΔTm [23]: 0.7 °C | ΔTm [24]: 0.2 °C | ΔTm [25]: -0.1 °C | ΔTm [26]: 0.2 °C

NC1=N/C(=C2/CCNC(=O)c3[nH]ccc32)C(=O)N1 [DEBROMOHYMENIALDISINE]
ΔTm [1]: 0 °C | ΔTm [2]: 0.2 °C | ΔTm [3]: 0.1 °C | ΔTm [4]: 0.1 °C | ΔTm [5]: 1.4 °C | ΔTm [6]: 0.6 °C | ΔTm [7]: 1.7 °C | ΔTm [8]: 6 °C | ΔTm [9]: 3.7 °C | ΔTm [10]: 4.5 °C | ΔTm [11]: 3.6 °C | ΔTm [12]: 3.5 °C | ΔTm [13]: 2.3 °C | ΔTm [14]: 5 °C | ΔTm [15]: -0.2 °C | ΔTm [16]: 0.4 °C | ΔTm [17]: 1.1 °C | ΔTm [18]: 0 °C | ΔTm [19]: 0.7 °C | ΔTm [20]: 2.5 °C | ΔTm [21]: 2.4 °C | ΔTm [22]: 6.4 °C | ΔTm [23]: 0.6 °C | ΔTm [24]: 0.7 °C | ΔTm [25]: 0.7 °C | ΔTm [26]: -0.4 °C

NCCNc1ncc(C(N)=O)c(Nc2cccc(C(F)(F)F)c2)n1
ΔTm [1]: 5.1 °C | ΔTm [2]: 5.7 °C | ΔTm [3]: -0.3 °C | ΔTm [4]: -0.6 °C | ΔTm [5]: 0.6 °C | ΔTm [6]: 1.1 °C | ΔTm [7]: 6.6 °C | ΔTm [8]: 2.2 °C | ΔTm [9]: 1.6 °C | ΔTm [10]: 1 °C | ΔTm [11]: 1 °C | ΔTm [12]: 0.7 °C | ΔTm [13]: 3.9 °C | ΔTm [14]: 8.1 °C | ΔTm [15]: 1.4 °C | ΔTm [16]: 5.1 °C | ΔTm [17]: 0.2 °C | ΔTm [18]: 0.1 °C | ΔTm [19]: 5.7 °C | ΔTm [20]: 0.7 °C | ΔTm [21]: 0.7 °C | ΔTm [22]: 2.6 °C | ΔTm [23]: 0.1 °C | ΔTm [24]: 2.5 °C | ΔTm [25]: 0.1 °C | ΔTm [26]: 0.5 °C

CC(=O)O/N=C1/C(=C2/C(=O)Nc3cc(Br)ccc32)Nc2ccccc21 [6-BROMOINDIRUBIN-3'-ACETOXIME]
ΔTm [1]: -1.4 °C | ΔTm [2]: -0.6 °C | ΔTm [3]: 0.9 °C | ΔTm [4]: -0.3 °C | ΔTm [5]: -1.7 °C | ΔTm [6]: 2.8 °C | ΔTm [7]: 0.1 °C | ΔTm [8]: -0.3 °C | ΔTm [9]: 2.3 °C | ΔTm [10]: -0.4 °C | ΔTm [11]: 0.6 °C | ΔTm [12]: 0.5 °C | ΔTm [13]: 0.7 °C | ΔTm [14]: 9.4 °C | ΔTm [15]: 2.5 °C | ΔTm [16]: 3.1 °C | ΔTm [17]: 1.9 °C | ΔTm [18]: 2.1 °C | ΔTm [19]: -0.2 °C | ΔTm [20]: -1.4 °C | ΔTm [21]: 0.4 °C | ΔTm [22]: 4.5 °C | ΔTm [23]: 2.1 °C | ΔTm [24]: 0.9 °C | ΔTm [25]: 0.1 °C | ΔTm [26]: -0.3 °C

N#C/C(=C(/N)Sc1ccc(N)cc1)c1ccccc1C(F)(F)F
ΔTm [1]: 0.3 °C | ΔTm [2]: 0.2 °C | ΔTm [3]: 0.6 °C | ΔTm [4]: 0.1 °C | ΔTm [5]: -0.2 °C | ΔTm [6]: 0.3 °C | ΔTm [7]: 0.3 °C | ΔTm [8]: 0.1 °C | ΔTm [9]: 0 °C | ΔTm [10]: 0 °C | ΔTm [11]: 0.5 °C | ΔTm [12]: 0.3 °C | ΔTm [13]: 0.3 °C | ΔTm [14]: -0.1 °C | ΔTm [15]: -5 °C | ΔTm [16]: 0.8 °C | ΔTm [17]: 1.3 °C | ΔTm [18]: 0 °C | ΔTm [19]: -0.2 °C | ΔTm [20]: 0.2 °C | ΔTm [21]: -0.2 °C | ΔTm [22]: -0.1 °C | ΔTm [23]: 0 °C | ΔTm [24]: 0.4 °C | ΔTm [25]: 1 °C | ΔTm [26]: -0.4 °C

N=C(N)NCCNS(=O)(=O)c1cccc2cnccc12
ΔTm [1]: 0 °C | ΔTm [2]: -0.4 °C | ΔTm [3]: 0.3 °C | ΔTm [4]: 0.1 °C | ΔTm [5]: -0.1 °C | ΔTm [6]: 0 °C | ΔTm [7]: 0.2 °C | ΔTm [8]: 0.7 °C | ΔTm [9]: 0.1 °C | ΔTm [10]: 0 °C | ΔTm [11]: -0.3 °C | ΔTm [12]: 0.4 °C | ΔTm [13]: 0.2 °C | ΔTm [14]: 0.4 °C | ΔTm [15]: -0.3 °C | ΔTm [16]: -0.6 °C | ΔTm [17]: 0.5 °C | ΔTm [18]: -0.7 °C | ΔTm [19]: -0.4 °C | ΔTm [20]: 0.6 °C | ΔTm [21]: 0.3 °C | ΔTm [22]: 0.6 °C | ΔTm [23]: 0.3 °C | ΔTm [24]: 0.1 °C | ΔTm [25]: 0.1 °C | ΔTm [26]: 0.6 °C

CC(C)(C)n1nc(-c2cccc3ccccc23)c2c(N)ncnc21
ΔTm [1]: -0.3 °C | ΔTm [2]: -0.3 °C | ΔTm [3]: 0.3 °C | ΔTm [4]: -0.1 °C | ΔTm [5]: 0.7 °C | ΔTm [6]: -0.3 °C | ΔTm [7]: 0.3 °C | ΔTm [8]: 1.1 °C | ΔTm [9]: 0.8 °C | ΔTm [10]: 0.2 °C | ΔTm [11]: 0.1 °C | ΔTm [12]: 0.5 °C | ΔTm [13]: 2.5 °C | ΔTm [14]: 0.1 °C | ΔTm [15]: -0.1 °C | ΔTm [16]: 3.2 °C | ΔTm [17]: -0.2 °C | ΔTm [18]: -0.4 °C | ΔTm [19]: -0.2 °C | ΔTm [20]: -0.2 °C | ΔTm [21]: 0 °C | ΔTm [22]: 0.3 °C | ΔTm [23]: 6.1 °C | ΔTm [24]: 0.4 °C | ΔTm [25]: 1.1 °C | ΔTm [26]: 0.5 °C
